From patent US7842671B1, “Peptidomimetic inhibitors of STAT activity and uses thereof” (University of South Florida, priority 2003, dated 2010)

Columns and labels:
Stat1:Stat1 = target: T1, Stat1:Stat1 (Mus musculus, UniProt P42225); experiment: EMSA of Stat1:Stat1 DNA-binding in nuclear extracts; type: biochemical
T1 construct: nuclear extracts (prepared from epidermal growth factor (EGF)-stimulated fibroblasts); endogenous in cells; host or cells: NIH3T3 fibroblasts stimulated with EGF
T1 sequence (P42225 1-749): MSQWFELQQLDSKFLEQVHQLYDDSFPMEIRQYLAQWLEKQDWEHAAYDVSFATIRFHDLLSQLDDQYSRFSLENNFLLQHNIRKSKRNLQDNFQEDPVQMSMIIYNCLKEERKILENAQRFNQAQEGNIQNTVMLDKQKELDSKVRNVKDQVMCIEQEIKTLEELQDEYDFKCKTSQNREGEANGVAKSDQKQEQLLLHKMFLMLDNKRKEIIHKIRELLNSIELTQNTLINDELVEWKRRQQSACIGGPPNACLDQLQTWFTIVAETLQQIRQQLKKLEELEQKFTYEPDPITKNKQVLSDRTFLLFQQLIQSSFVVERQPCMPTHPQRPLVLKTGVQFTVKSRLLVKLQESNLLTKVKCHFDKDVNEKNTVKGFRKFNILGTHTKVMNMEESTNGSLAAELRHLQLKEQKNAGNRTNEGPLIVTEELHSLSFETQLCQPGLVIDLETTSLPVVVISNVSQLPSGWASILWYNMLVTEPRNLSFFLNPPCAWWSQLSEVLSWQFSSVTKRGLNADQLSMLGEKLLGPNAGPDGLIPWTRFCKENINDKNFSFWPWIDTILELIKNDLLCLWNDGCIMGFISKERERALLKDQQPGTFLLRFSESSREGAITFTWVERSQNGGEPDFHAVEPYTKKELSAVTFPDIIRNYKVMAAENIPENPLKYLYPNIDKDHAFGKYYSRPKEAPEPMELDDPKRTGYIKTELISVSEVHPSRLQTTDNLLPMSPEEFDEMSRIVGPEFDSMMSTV
Description: (§1) Nuclear extract preparation and gel shift assays. Nuclear extracts were prepared from cell lines and used for electrophoretic mobility shift assay (EMSA) as previously described (Garcia, R. et al. (1997); Yu, C. L. et al. (1995); Turkson, J. et al. (1998)). In some cases, cells were pre-treated with peptidomimetics for the indicated times (12-48 h) prior to harvesting for nuclear extract preparation. In other studies, nuclear extracts were pre-incubated with peptidomimetics for 30 min at room temperature prior to incubation with radiolabeled probe. The ^32P-radiolabeled oligonucleotide probes used are hSIE (high affinity sis-inducible element, m67 variant, 5′-[…]-3′) (SEQ ID NO. 3) that binds both Stat1 and Stat3 (Garcia, R. et al. (1997); Wagner B. J. et al. (1990)) and MGFe (mammary gland factor element from the bovine β-casein gene promoter, 5′-[…]-3′) (SEQ ID NO. 4) that binds Stat1 and Stat5 (Gouilleux, F. et al. (1995); Seidel, H. M. et al. (1995)).
(§2) Peptidomimetics of the invention can be prepared by replacing prolyl or alanyl residue at the peptide bond that is N-terminal to the phosphotyrosine (Y*) of a peptide such as PY*L or AY*L with an organic substituent such as an optionally substituted aryl or heteroaryl group. The activities of STATs were measured in nuclear extracts (prepared from epidermal growth factor (EGF)-stimulated fibroblasts) as DNA-bound protein complexes by electrophoretic mobility shift assay (EMSA). STAT-DNA complexes detected include Stat3:Stat3 homodimers (upper band), Stat1:Stat3 heterodimers (intermediate band) and Stat1:Stat1 homodimers (lower band) (FIG. 1A) when a ^32P-labeled hSIE oligonucleotide probe is used, or Stat5:Stat5 (upper band) and Stat1:Stat1 dimers (lower band) (FIG. 1B) when ^32P-labeled MGFe is used as a probe.

Stat5:Stat5 = experiment: EMSA of Stat5:Stat5 DNA-binding in nuclear extracts; type: biochemical, mouse; details: nuclear extracts pre-incubated 30 min, mean and SD of at least 3 assays, read-out: IC50 values against STAT Dimers, Stat5:Stat5
Description: as §1, §2

NIH3T3/v-Ras [1] = experiment: Soft-agar growth of v-Ras-transformed fibroblasts; type: cell-based, mouse; details: 1 mM every 2-3 days
Description: (§3) Cell proliferation, soft-agar growth and Apo-BrdU labeling studies. Proliferating fibroblasts and human tumor cells were counted by phase-contrast microscopy for viable cells (using tyrpan blue exclusion). Colony formation assays in six-well dishes and quantification of colonies by iodonitrotetrazolium violet have been previously described (Turkson, J. et al. (1999)). Treatment of cells with inhibitors was initiated 1 day after seeding cells by adding 75 μl of medium with or without inhibitor, and repeated every two to three days. Apoptosis was measured by Apo-BrdU labeling and following the supplier's (PharMingen; San Diego, Calif.) instructions.
Previous studies with PY*LKTK-MTS (SEQ ID NO. 1) (Turkson, J. et al., 2001)) confirmed that inhibition of constitutive Stat3 activation blocks Src transformation (Turkson, J. et al. (1998); Turkson, J. et al., (1999); Bromberg, J. R. et al. (1998)).

NIH3T3/v-Ras [2] = type: cell-based, mouse; details: 1 mM
Description: as §3
(§4) Stat3 has an essential role in cell proliferation, and constitutively-active Stat3 is required for growth of transformed and tumor cells that harbor aberrant Stat3 signaling. Studies were performed to determine the effects of the peptidomimetic-mediated inhibition of Stat3 on cell proliferation using trypan blue exclusion for viable cell counts.

NIH3T3/v-Src = type: cell-based, mouse; details: 1 mM, four days
Description: as §3, §4

NIH3T3 = type: cell-based, mouse; details: 1 mM, normal NIH3T3 cells
Description: as §3, §4

Stat3 [3] = target: T2, Stat3 (Mus musculus, UniProt P42227); type: cell-based; set-up: nuclear extracts prepared from v-Src-transformed NIH3T3/v-Src; endogenous in cells; host or cells: NIH3T3/v-Src
Description: as §1

Stat3 [4] = target: T2, Stat3; type: cell-based; set-up: nuclear extracts (prepared from epidermal growth factor (EGF)-stimulated fibroblasts); endogenous in cells; host or cells: NIH3T3 fibroblasts stimulated with EGF

T2 sequence (P42227 whole entry): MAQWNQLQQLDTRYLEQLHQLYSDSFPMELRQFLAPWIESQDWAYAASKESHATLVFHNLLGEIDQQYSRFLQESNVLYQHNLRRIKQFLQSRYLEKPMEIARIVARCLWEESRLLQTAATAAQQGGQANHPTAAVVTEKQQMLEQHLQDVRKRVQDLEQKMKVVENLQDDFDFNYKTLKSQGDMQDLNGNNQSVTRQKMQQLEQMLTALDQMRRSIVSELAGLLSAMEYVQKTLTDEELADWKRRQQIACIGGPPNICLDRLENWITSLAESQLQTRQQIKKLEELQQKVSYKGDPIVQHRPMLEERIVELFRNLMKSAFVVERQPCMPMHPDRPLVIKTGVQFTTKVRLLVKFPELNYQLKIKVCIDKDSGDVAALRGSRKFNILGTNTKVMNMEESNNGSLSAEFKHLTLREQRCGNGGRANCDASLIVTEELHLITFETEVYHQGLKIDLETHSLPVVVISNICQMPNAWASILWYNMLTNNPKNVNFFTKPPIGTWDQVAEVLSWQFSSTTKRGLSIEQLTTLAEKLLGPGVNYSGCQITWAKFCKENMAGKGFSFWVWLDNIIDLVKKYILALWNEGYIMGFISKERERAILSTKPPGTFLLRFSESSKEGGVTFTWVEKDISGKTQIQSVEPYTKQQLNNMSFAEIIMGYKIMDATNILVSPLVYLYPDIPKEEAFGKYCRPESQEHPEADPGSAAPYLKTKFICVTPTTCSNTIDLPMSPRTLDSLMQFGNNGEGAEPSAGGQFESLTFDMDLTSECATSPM

Structure (SMILES): CC(C)CC(NC(=O)C(Cc1ccc(OP(=O)(O)O)cc1)NC(=O)c1ccc(C#N)cc1)C(=O)O (centres unmarked) [ISS 610]
- IC50 (Stat1:Stat1): 310 µM
- IC50 (Stat5:Stat5): 285 µM
- soft-agar growth (NIH3T3/v-Ras [1]): no effect
- cell proliferation (NIH3T3/v-Ras [2]): no effect on cell proliferation
- cell proliferation (NIH3T3/v-Src): significantly suppresses proliferation
- cell proliferation (NIH3T3): no effect on cell proliferation
- Stat3 activation in Src-transformed fibroblasts (EMSA) (Stat3 [3]): time-dependent reduction of Stat3 activation
- ligand (EGF)-induced STAT activation (Stat3 [4]): preferential inhibition of activation of Stat3
